Holding throughout (assay type): biochemical
Data set [1] has as its target 2E1 (Homo sapiens, UniProt P05181). The settings on record: 25 μM; 15 min pre-incubation at 37 °C in the presence of 1 mM NADPH; positive control.
Data set [2] concerns the target human cytochrome P450_2E1 (Homo sapiens, UniProt P05181). Description: Inhibition of P450 2E1. Conditions: for Ki: KI for inhibition of 2E1, competitive model, p-nitrophenol substrate; for fold difference in 2E1 KI, branched versus linear 10-carbon aldehyde: decanal vs citronellal, decenal vs citral.
Data set [3] has as its target expressed cytochrome P450_2E1 in supersomes (Homo sapiens, UniProt P05181). Description: Aldehyde oxidation to carboxylic acid by expressed human P450 2E1 supersomes. The settings on record: for NADPH-dependent oxidation of aldehyde by expressed 2E1: 100-120 μM aldehyde, 1.0 mM NADPH, 45 min, 37 °C; for effect on the rate of acid formation from trans-2-octenal: 1.0 mM added, 2E1 supersomes.

Data set [4] addresses T1, expressed 2A6 (supersomes) (Homo sapiens, UniProt P11509).
T1 sequence (P11509 1-494): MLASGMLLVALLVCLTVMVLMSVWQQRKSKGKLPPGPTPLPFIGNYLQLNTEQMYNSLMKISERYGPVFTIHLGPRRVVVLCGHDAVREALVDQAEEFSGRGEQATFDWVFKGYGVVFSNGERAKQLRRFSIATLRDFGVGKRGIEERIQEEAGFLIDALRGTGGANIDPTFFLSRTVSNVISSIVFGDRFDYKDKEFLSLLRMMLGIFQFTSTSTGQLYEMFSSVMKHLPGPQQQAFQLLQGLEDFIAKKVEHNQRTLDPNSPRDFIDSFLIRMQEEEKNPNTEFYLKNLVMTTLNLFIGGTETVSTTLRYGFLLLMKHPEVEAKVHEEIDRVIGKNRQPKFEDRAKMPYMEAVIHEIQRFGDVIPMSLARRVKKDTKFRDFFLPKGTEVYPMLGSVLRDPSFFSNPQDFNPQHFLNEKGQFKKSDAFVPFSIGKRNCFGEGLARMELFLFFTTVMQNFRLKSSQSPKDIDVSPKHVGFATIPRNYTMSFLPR
Kind of data set: Aldehyde oxidation to carboxylic acid by expressed human P450 2A6 supersomes. The settings on record: 100-120 μM aldehyde, 1.0 mM NADPH, 45 min, 37 °C.

For data set [5], the target named is T2, human cytochrome P450_2A6 (Homo sapiens, UniProt P11509).
T2 sequence (P11509 1-494): T1 sequence (P11509 1-494)
Kind of data set: Inhibition of P450 2A6.

Where [6] appears, read: KI for inhibition of 2A6, competitive model, coumarin substrate.

Where “and” joins values, the source holds several entries; their conditions need not be identical. Equal entries are not always repeated. Where two headings read alike, the source gives them in different places.

Sequence of human cytochrome P450_2E1 (P05181 whole entry): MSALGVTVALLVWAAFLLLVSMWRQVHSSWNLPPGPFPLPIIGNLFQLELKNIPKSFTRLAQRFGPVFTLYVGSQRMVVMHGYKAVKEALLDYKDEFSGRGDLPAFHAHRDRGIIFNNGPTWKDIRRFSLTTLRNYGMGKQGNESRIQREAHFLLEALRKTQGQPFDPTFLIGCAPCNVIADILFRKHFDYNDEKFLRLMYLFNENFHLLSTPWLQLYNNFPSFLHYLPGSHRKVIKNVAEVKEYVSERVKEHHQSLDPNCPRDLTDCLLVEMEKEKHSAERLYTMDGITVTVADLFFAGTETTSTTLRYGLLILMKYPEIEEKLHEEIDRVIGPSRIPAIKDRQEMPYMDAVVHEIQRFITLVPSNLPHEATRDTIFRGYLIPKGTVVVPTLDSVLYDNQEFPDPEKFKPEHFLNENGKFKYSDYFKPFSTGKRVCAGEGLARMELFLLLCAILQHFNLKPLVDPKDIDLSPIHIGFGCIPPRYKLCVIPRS
Sequence of expressed cytochrome P450_2E1 in supersomes (P05181 whole entry): as above
Sequence of 2E1 (P05181 whole entry): as above

As for `C=CCCCCCCCCC=O` [11-undecylenic aldehyde], the “loss of the activity of 2E1 after pre-incubation” value in data set [1] is listed as ~ 50%.

The term Ki denotes a measure of affinity in units of concentration, obtained from inhibition or displacement. Low readings indicate a stronger hold on the target, high ones a looser hold on the target. For `CCCCCCCCCC=O` [Decyl Saturated, decanal], in data set [2], the Ki came out at 7 µM and the “fold difference in 2E1 KI, branched versus linear 10-carbon aldehyde” value is recorded as “about 8 fold”.

Turning to `CCCCCCC/C=C/C=O` [Decyl Unsaturated, trans-2-decenal], in data set [3], the “NADPH-dependent oxidation of aldehyde by expressed 2E1” value is reported as “effective in the oxidation”. Besides, the “NADPH-dependent oxidation of aldehyde by expressed 2A6” value in data set [4] is recorded as “no acid products”.

Turning to `CCCCCCC=O` [Heptyl Saturated, heptanal], in data set [5] (setting [6]), the Ki is 15.8 ± 1.1 µM.

For the compound `CCCC/C=C/C=O` [Heptyl Unsaturated, trans-2-heptenal], the “NADPH-dependent oxidation of aldehyde by expressed 2E1” value in data set [3] is listed as “effective in the oxidation”. For the same compound, the “NADPH-dependent oxidation of aldehyde by expressed 2A6” value in data set [4] was “no acid products”.

The compound `CCCCCC=O` [Hexyl Saturated] came in with a Ki in data set [5] of 57 ± 7 µM.

Turning to `CCC/C=C/C=O` [Hexyl Unsaturated], the Ki in data set [5] was determined as 33 ± 3 µM.

In data set [5], `CCCCCCCCC=O` [Nonyl Saturated] showed a Ki of 55 ± 6 µM.

With `CCCCCC/C=C/C=O` [Nonyl Unsaturated, trans-2-nonenal], in data set [3], the “NADPH-dependent oxidation of aldehyde by expressed 2E1” value is listed as “effective in the oxidation”. Besides, the “NADPH-dependent oxidation of aldehyde by expressed 2A6” value in data set [4] is given as “no acid products”.

As to `CCCCCCCC=O` [Octyl Saturated], the affinity in data set [5], expressed as Ki, was 25 ± 2 µM.

For the compound `CCCCC/C=C/C=O` [Octyl Unsaturated, trans-2-octenal], in data set [3], the “NADPH-dependent oxidation of aldehyde by expressed 2E1” value is given as “effective in the oxidation”. In addition, the “NADPH-dependent oxidation of aldehyde by expressed 2A6” value in data set [4] is on record as “no acid products”.

In data set [5], `CCCCC=O` [Pentyl Saturated] came in with a Ki of 126 ± 16 µM.

On to `CCC=CC=O` [Pentyl Unsaturated], for which, in data set [5], the Ki was found to be 1270 ± 150 µM.

`CCCCCCCC/C=C/C=O` [Undecy Unsaturated] came in with a Ki in data set [5] of 103 ± 22 µM.

Regarding `O=C1O[C@H]([C@@H](O)CO)C(O)=C1O` [ascorbate, reference compound], the “effect on the rate of acid formation from trans-2-octenal” value in data set [3] was “no effect”.

On to `CC(C)=CCCC(C)=CC=O` [citral, 3,7-dimethyl 2,6-octadienal], for which, in data set [2], the Ki was 18.8 µM and 15.7 µM; the “fold difference in 2E1 KI, branched versus linear 10-carbon aldehyde” value was found to be 5 fold. In addition, the “mode of inhibition of 2E1” value in data set [2] (Michaelis-Menten model) is “reversible competitive inhibition”. Besides, the Ki in data set [5] (setting [6]) was greater than 100 µM.

Consider `N[C@@H](CCC(=O)N[C@@H](CS)C(=O)NCC(=O)O)C(=O)O` [glutathione, reference compound], for which the “effect on the rate of acid formation from trans-2-octenal” value in data set [3] is “no effect”.

With `CCCCCCCCCCCC(=O)O` [lauric acid, reference compound], the “reduction of the activity of 2E1” value in data set [2] (concentration of 50 μM) is 50%.

Source of the values: PMC4252262 (Chemico-biological interactions, 2014).
